In US20180134788A1, “Methods and Pharmaceutical Compositions (NTSR1 Inhibitors) for the Treatment of Hepatocellular Carcinomas” (INSERM (Institut National de la Sante et de la Recherche …, priority 2015, published 2018):

Assays:
[1] = system: phosphorylated-EGFR in HEP 3B and PLC/RF5 cells; assay: Western blot of Tyr 1173 phosphorylated EGFR in HCC cell lines; format: cell-based; details: both cell lines, SR 48692 added to SB216763 treatment
Protocol: (§1) (A) Typical immunocytochemistry labeling for NTSR1 (Top) and EGFR (Bottom) in PLC/RF5 and HEP 3B cells treated or not with 1 μM SB216763 or 5 μM SR4892 or both for 48 h. (B and C) Representative western blot analyses of Tyr 1173 phosphorylated EGFR, EGFR, and actin of HEP 3B and PLC/RF5 treated as indicate above.
In both cell lines, phosphorylated-EGFR was increased under SB216763 treatment this increase was abolished when SR 48692 was added to the treatment.

[2] = system: NTSR1 expression in HEP 3B and PLC/PRF5 cells; assay: NTSR1 immunocytochemistry labeling in HCC cell lines; format: cell-based; details: PLC/PRF5 and HEP3B, 48 h; 1 μM SB216763 or 5 μM SR48692
Protocol: (A) NTS, NTSR2, NTSR3, and NTSR1 transcript analysis from 400 ng of HuH7, HEP 3B, and PLC/RF5, total RNA. NTSR1 A and NTSR1 B show the amplicon from two different set of primers. (B) Typical immunocytochemistry labeling for NTSR1 and DAPI in HEP 3B and PLC/RF5 cells. Cells were seeded on glass slides, grown for 48 h, and immunocytochemistry was performed as described in the Materials and Methods section. (C) NTSR1 transcript analysis from HuH7, HEP 3B and PLC/RF5 of total RNA from cells treated or not with […] LiCl for 6 h. (D) Typical immunocytochemistry NTSR1 labeling of HEP 3B and PLC/RF5 cells treated with 1 μM SB 216763 for 6 h.
as §1
Among the three cell lines studied, only PLC/PRF5 cells presented a dysregulation in the beta catenin pathway with a deletion in Axin (E4/−). […] We previously hypothesized that NTSR1 expression was correlated with deregulated wnt/beta catenin pathways. To evaluate this hypothesis, we forced the cellular and nuclear relocation of β-catenin in these cells lines with the LiCl, and an inhibitor of the glycogen synthase kinase (GSK) 3β, the SB216763. LiCl and SB216763 are known to decrease the degradation of β-catenin by inhibiting GSK-3 and promoting the accumulation of β-catenin in the cytoplasm of liver cancer cells.
(§2) It was previously shown that the NTS/NTSR1 complex potentiates EGF signaling in liver, colon, prostate, lung, and breast cancer. We investigated the possible relation between NTSR1 expression and EGFR expression and activation. […] Treatment with SR48692, a specific NTSR1 antagonist, decreased the expression of EGFR, whereas NTSR1 expression was not altered. When the combined treatment with SB216763 and SR48692 is used, the effect of SB216763 on EFGR expression is limited by the presence of the NTSR1 antagonist (FIG. 5A).

[3] = system: PLC-R1a and PLC-R2a cells; assay: Migration assay on type 1 collagen, PLC/PRF5 NTSR1 overexpressing clones; format: cell-based; details: 5 μM SR 48692, vs DMSO
Protocol: (§3) (A) Speed of migration on type 1 collagen of HEP 3B and NTSR1 overexpressing clones treated or not with 1/100 NTS or 1/100 Long Fragment NTS antibody. Results represent the mean±SEM of 5 independent experiments. (B) Speed of migration on type 1 collagen of PLC/RF5 and NTSR1 overexpressing clones in the presence or not of 5 μM SR 48692. Results represent the mean±SEM of 3 independent experiments. (C) Numbers of invasive cells crossing the type I collagen in Boyden chamber when HEP 3B and NTSR1 overexpressing clones were treated or not with NTS or Long Fragment NTS antibody or 5 μM. SR 48692. Results are expressed relatively to wild type cells and represent the mean±SEM of 5 to 7 independent experiments.
Migration assays were used to evaluate the effect of NTS/NTSR1 on cancer cell migration, another hallmark contributing to the invasion and metastasis of cancers. The procedure described in the methods section allows the comparison of the migration speed between both cell lines at the same time over a period of 48 h, and on the intact type I collagen matrix. […] Similar observations were made with PLC/PRF5 cells and derivative clones.

HEP 3B tumors = assay: HEP 3B experimental tumor growth in mice; format: in vivo
Protocol: (§4) (A) Experimental tumors were generated from the HCC cancer cell line, HEP 3B and PLC/RF5 and the NTSR1-overexpressing subclones. Comparative growth curves of HEP 3B, HEP-R1a, PLC/RF5, PLC/R1 in 8, 7, 10 and 7 mice, respectively. Tumor volumes were measured twice a week. (B) Tumor weight at 42 days. (C and D) Experimental tumors were generated from HEP 3B or HEP-R1a in the different mice. When the tumor size reached 100 mm3, mice were randomly distributed in 2 groups. A control group force feed with H2O, or with 1 mg/kg SR 48692 every day. (E) Typical IHC performed on paraffin sections for NTS, NTSR1 EGFR and phosphorylated EGFR labelling, 200× magnification.
(§5) Experimental tumors were generated from HEP 3B (A) and HEP-R1a (B) in the same mice. Mice were treated per os with 75 mg/kg erlotinib every day for 22 days. Tumor size was measured every two days. Result shown is the ratio of tumor compare to day 1. (C) The doubling time was subsequently calculated using the following formula: doubling time=t*((LN(2))/(LN(VOL F/VOL I)), at day 22.
(§6) Experimental tumors were generated from HEP 3B (D) or HEP-R1a (E) in the different mice. When the tumor size reached 100 mm^3, mice were randomly distributed in 2 groups. A control group force feed with H2O, and the treated group, force feed every day with […] sorafenib. Result shown is the ratio of tumor compare to day 1. (F) Tumor weight at day 15.
(§7) To determine the contribution of NTS/NTSR1 complex on tumor progression, mice were implanted with HCC cell lines and NTSR1 overexpressing clones. For HEP3B cells the tumors were measurable 21 days after cells injection. In contrast, the tumor burden for both clones overexpressing NTSR1 was measurable at day 13. The growth rate at day 42 was 2.9 and 2.08 fold higher for HEP-R1a and PLC-R1a as compared to respective parental cells, respectively, (FIG. 7A). As shown in FIG. 7B the tumor weights were in correspondence with the tumor size 4.3 and 2.8 fold higher for HEP-R1a and PLC-R1a as compared to their respective parental cells, respectively. To confirm the contribution of NTS/NSTR1 complex in tumor growth, animals were treated with a specific NTSR1 antagonist, the SR 48692. When tumors reach 100 mm3, the groups were treated per os with H2O, or 1 mg/kg SR 48692, respectively. […] The final tumor size of HEP-R1a tumors treated with SR 48692 was 441.9±39.85 mm^3, and was very similar to the untreated HEP 3B tumors 516.3±139.72 mm^3.
As shown above, NTSR1 activation induced a sustained EGFR activation, which we believe, acts as EGFR driver mutation (FIG. 4). To explore this hypothesis, the HCC cell lines HEP 3B and HEP-R1a were xenografted on the same mice. The mice were randomly distributed in two groups based on the size of the HEP 3B tumors. Since HEP-R1a tumors grow faster than HEP 3B tumors, HEP 3B cells were injected a few days before HEP-R1a cells. In the control group, the average HEP3B tumor size was 168.2±38.1 mm3 and the HEP-R1a tumor size was 79.7±16.4 mm3 at day 1. The treated group carried HEP 3B tumors of 164.7±31.2 mm3 and HEP-R1a tumors of 87.2±19.13 mm3 at day 1. Mice were daily treated, per os, with 75 mg/kg erlotinib or H2O for 22 days. […] Over the period of the treatment, the doubling time of HEP-R1a tumors was 7.0±0.55 days and 10.1±1.1 (p=0.0016) for control and treated with erlotinib, respectively. For the HEP 3B tumors, the doubling time was similar 7.8±0.52 and 7.7±0.84 days for control and treated group respectively (FIG. 8 C). […]

HEP-R1a tumors = assay: HEP-R1a experimental tumor growth in mice; format: in vivo
Protocol: as §4, §5, §6, §7
As shown above, NTSR1 activation induced a sustained EGFR activation, which we believe, acts as EGFR driver mutation (FIG. 4). To explore this hypothesis, the HCC cell lines HEP 3B and HEP-R1a were xenografted on the same mice. The mice were randomly distributed in two groups based on the size of the HEP 3B tumors. Since HEP-R1a tumors grow faster than HEP 3B tumors, HEP 3B cells were injected a few days before HEP-R1a cells. In the control group, the average HEP3B tumor size was 168.2±38.1 mm3 and the HEP-R1a tumor size was 79.7±16.4 mm3 at day 1. The treated group carried HEP 3B tumors of 164.7±31.2 mm3 and HEP-R1a tumors of 87.2±19.13 mm3 at day 1. Mice were daily treated, per os, with 75 mg/kg erlotinib or H2O for 22 days. […] Over the period of the treatment, the doubling time of HEP-R1a tumors was 7.0±0.55 days and 10.1±1.1 (p=0.0016) for control and treated with erlotinib, respectively. For the HEP 3B tumors, the doubling time was similar 7.8±0.52 and 7.7±0.84 days for control and treated group respectively (FIG. 8 C).
Sorafenib is a known multikinase inhibitor targeting Raf/MEK/ERK signaling at the level of Raf kinase, angiogenesis, VEGFR-2/-3, and PDGFR-β tyrosine kinase. Sorafenib is currently used to treat HCC with some success. In order to evaluate the autocrine NTS regulation on sorafenib responses, each HEP 3B or HEP-R1a cells were injected to four groups of mice. When tumors reach 100 mm3, the groups were treated per os with H2O, 30 mg/kg sorafenib for 15 days, respectively. […]

[4] = system: HEP3B cells with upregulated NTSR1 (HEP-R1a, HEP-R1b); assay: Boyden chamber invasion on type-I collagen-coated inserts; format: cell-based; details: HEP3B NTSR1 clones, 36 hours, 5 μM SR 48692 or antibodies
Protocol: as §3
In parallel, Boyden chambers were used to examine the invasiveness characteristics of HCC cancer cells, on type-I collagen-coated inserts over 36 hours incubation. Compared with HEP 3B cells, the number of invading cancer cells for HEP-R1a cells and HEP-R1b cells is increased by 211±19% (p<0.01) and 617±94% (p<0.01), respectively. To determine whether NTS contributes to cellular invasion, cells were exposed to the NTSR1 antagonist, or two antibodies directed against NTS or the long fragment NTS. […] In our hands, the PLC/PRF5 cells were very invasive.

[5] = system: EGFR expression in PLC/PRF5 and HEP3B cells; assay: EGFR immunocytochemistry labeling in HCC cell lines; format: cell-based
Protocol: as §1, §2

[6] = system: HEP-R1b and HEP-R1a cells; assay: Clonogenic assay, NTSR1 overexpressing clones; format: cell-based; details: two weeks
Protocol: (§8) (A) Cellular proliferation performed on HEP 3B and HEP-R1b cells. Results are the means of 3 independents experiments and expressed as percentage of respective control. (B) Clonogenic assay performed with HEP 3B and HEP-R1b cells treated with different dose of erlotinib. Cells were incubated for two weeks with the treatment. Results are the means of 6 independents experiments and expressed as percentage of respective control. (C) Cellular proliferation performed on HEP 3B and HEP-R1a cells. Results are the means of 6 independents experiments. (D) Clonogenic assay performed with HEP 3B and HEP-R1a cells treated with different dose of sorafenib. Cells were incubated for two weeks with the treatment. Results are the means of 6 independents experiments.
(§9) We confirmed the erlotinib and sorafenib responses in cells overexpressing NTSR1 in clonogenic assay. […] In contrast, HEP 3B cells are not sensitive either to erlotinib or sorafenib.

[7] = system: cells overexpressing NTSR1 versus HEP 3B cells; assay: Cellular proliferation test; format: cell-based; details: cells overexpressing NTSR1 compared with HEP 3B cells
Protocol: as §8, §9

HEP 3B cells = assay: Clonogenic assay, HEP 3B cells; format: cell-based; details: two weeks
Protocol: as §8, §9

advanced HCC = details: patients with advanced HCC and well-compensated liver function, oral; cited from earlier work
[8] = 30 mg/kg sorafenib per os, 15 days

COc1cccc(OC)c1-c1cc(C(=O)NC2(C(=O)O)C3CC4CC(C3)CC2C4)nn1-c1ccnc2cc(Cl)ccc12 (centres unmarked) [SR48692]
SB216763-induced increase of phosphorylated-EGFR [1]: abolished
NTSR1 expression [2]: not altered
decrease of migration speed ([3]; PLC-R1a cells): 27%
decrease of migration speed ([3]; PLC-R2a cells): 33%
tumor growth rate (HEP 3B tumors; HEP 3B tumors, 1 mg/kg SR 48692 per os every day): no influence
final tumor size (HEP-R1a tumors; 1 mg/kg SR 48692 per os): 441.9±39.85 mm^3
tumor growth rate (HEP-R1a tumors; 1 mg/kg SR 48692 per os every day): inhibited by two fold
increase of cellular invasion when NTSR1 is upregulated [4]: fully or partially abolished
EGFR expression ([5]; PLC/PRF5 and HEP3B, 48 h, 1 μM SB216763 or 5 μM SR48692): decreased
effect of SB216763 on EGFR expression in presence of the NTSR1 antagonist ([5]; combined treatment 1 μM SB216763 and 5 μM SR48692, 48 h): limited

C#Cc1cccc(Nc2ncnc3cc(OCCOC)c(OCCOC)cc23)c1 [erlotinib]
number of colonies ([6]; HEP-R1b cells exposed to erlotinib): markedly reduced
sensitivity in cellular proliferation test [7]: more sensitive
sensitivity in clonogenic assay (HEP 3B cells): not sensitive
tumor growth response (HEP 3B tumors; HEP3B tumors, 75 mg/kg erlotinib per os daily, 22 days): did not respond
tumor doubling time (HEP 3B tumors; HEP 3B tumors, 75 mg/kg erlotinib, day 22): 7.7 ± 0.84 days
tumor growth rate (HEP-R1a tumors; 75 mg/kg erlotinib per os daily, 22 days): drastically affected
tumor doubling time (HEP-R1a tumors; 75 mg/kg erlotinib, day 22): 10.1 ± 1.1 days

CNC(=O)c1cc(Oc2ccc(NC(=O)Nc3ccc(Cl)c(C(F)(F)F)c3)cc2)ccn1 [sorafenib]
number of colonies ([6]; HEP-R1a cells exposed to sorafenib): markedly reduced
sensitivity in cellular proliferation test [7]: more sensitive
sensitivity in clonogenic assay (HEP 3B cells): not sensitive
tumor growth rate (HEP 3B tumors; HEP 3B tumors, 30 mg/kg sorafenib per os, 15 days): no influence
tumor weight versus control (HEP 3B tumors; HEP 3B tumors, sorafenib treated group, end of treatment): approximately equal
final tumor size (HEP-R1a tumors; [8]): 400.3±59.9 mm3
tumor growth rate (HEP-R1a tumors; [8]): inhibited by two fold
tumor weight (HEP-R1a tumors; sorafenib treated group, end of treatment (day 15)): 0.650 ± 0.080 g
survival (advanced HCC): prolong survival
